Assay results taken from BindingDB's records for doi:10.1021/jm960509y (Abbott Laboratories, 1997).
*1 amine or outer side, *2 acyl side, *3 side chain or, on linkers, in order; H or OH if unused. Where a SMILES comes first, the peptide text is derived from it. Side-chain parts run from the residue outwards. [ ]: non-standard residue; d: D form. The star is where a group is joined. ξ: configuration not given here. NH(4-MeO-phenyl) = COc1ccc(N*)cc1; ξW = NC(Cc1c[nH]c2ccccc12)C(=O)O; pNA = O=[N+]([O-])c1ccc(N*)cc1; X2 = O=[N+]([O-])c1cccc(N*)c1; NH(3-MeOPh) = COc1cccc(N*)c1; 3Abz = Nc1cccc(C(=O)O)c1; ξF = NC(Cc1ccccc1)C(=O)O; X1 = CC(=O)c1ccc(N*)cc1; ξD = NC(CC(=O)O)C(=O)O; Boc = CC(C)(C)OC(=O)*; CO = O=C([*:1])[*:2]

Legend:
[1] = biological target: Gastrin/cholecystokinin type B receptor (Cavia porcellus); experiment: Displacement of [125I]- BH-CCK-8 from Cholecystokinin type B receptor of guinea pig cortex
[2] = biological target: Gastrin/cholecystokinin type B receptor (Cavia porcellus); experiment: Inhibitory activity against Cholecystokinin type B receptor using [125I]- BH-CCK-8 as radioligand in cortex tissue of guinea pig

Row | Structure (SMILES) | IC50 [1] | IC50 [2]
1 | CC(C)(C)OC(=O)NC(Cc1c[nH]c2ccccc12)C(=O)N[C@@H](CCCCNC(=O)Nc1ccc([N+](=O)[O-])cc1)C(=O)NC(CC(=O)O)C(=O)NC(Cc1ccccc1)C(N)=O (stereo partly drawn) [3-{(S)-2-[2-tert-Butoxycarbonylamino-3-(1H-indol-3-yl)-propionylamino]-6-[3-(4-nitro-phenyl)-ureido]-hexanoylamino}-N-(1-carbamoyl-2-phenyl-ethyl)-succinamic acid] (Boc-[ξW]K([CO-pNA])[ξD][ξF]-NH2) | 31 nM | 
2 | CSCCC(NC(=O)NC(CC(=O)O)C(=O)NC(Cc1ccccc1)C(N)=O)C(=O)NC(=O)C(Cc1c[nH]c2ccccc12)NC(=O)OC(C)(C)C (configuration not stated) [3-(3-{1-[2-tert-Butoxycarbonylamino-3-(1H-indol-3-yl)-propionylcarbamoyl]-3-methylsulfanyl-propyl}-ureido)-N-(1-carbamoyl-2-phenyl-ethyl)-succinamic acid] |  | 25 nM
3 | COC(=O)c1cccc(NC(=O)NCCCC[C@H](NC(=O)C(Cc2c[nH]c3ccccc23)NC(=O)OC(C)(C)C)C(=O)NC(CC(=O)O)C(=O)NC(Cc2ccccc2)C(N)=O)c1 (some centres not stated) (Boc-[ξW]K([CO-3Abz-OMe])[ξD][ξF]-NH2) | 1000 nM | 
4 | CC(=O)c1ccc(NC(=O)NCCCC[C@H](NC(=O)C(Cc2c[nH]c3ccccc23)NC(=O)OC(C)(C)C)C(=O)NC(CC(=O)O)C(=O)NC(Cc2ccccc2)C(N)=O)cc1 (stereo partly drawn) [3-{(S)-6-[3-(4-Acetyl-phenyl)-ureido]-2-[2-tert-butoxycarbonylamino-3-(1H-indol-3-yl)-propionylamino]-hexanoylamino}-N-(1-carbamoyl-2-phenyl-ethyl)-succinamic acid] (Boc-[ξW]K([CO-X1])[ξD][ξF]-NH2) | 12 nM | 
5 | CC(C)(C)OC(=O)N[C@@H](Cc1c[nH]c2ccccc12)C(=O)N[C@@H](CCCCNC(=O)Nc1cccc([N+](=O)[O-])c1)C(=O)N[C@@H](CC(=O)O)C(=O)N[C@@H](Cc1ccccc1)C(N)=O [3-{(S)-2-[2-tert-Butoxycarbonylamino-3-(1H-indol-3-yl)-propionylamino]-6-[3-(3-nitro-phenyl)-ureido]-hexanoylamino}-N-(1-carbamoyl-2-phenyl-ethyl)-succinamic acid] (Boc-WK([CO-X2])DF-NH2) | 1200 nM | 
6 | COc1cccc(NC(=O)NCCCC[C@H](NC(=O)C(Cc2c[nH]c3ccccc23)NC(=O)OC(C)(C)C)C(=O)NC(CC(=O)O)C(=O)NC(Cc2ccccc2)C(N)=O)c1 (stereo partly drawn) [3-{(S)-2-[2-tert-Butoxycarbonylamino-3-(1H-indol-3-yl)-propionylamino]-6-[3-(3-methoxy-phenyl)-ureido]-hexanoylamino}-N-(1-carbamoyl-2-phenyl-ethyl)-succinamic acid] (Boc-[ξW]K([CO-NH(3-MeOPh)])[ξD][ξF]-NH2) | 1400 nM | 
7 | COc1ccc(NC(=O)NCCCC[C@H](NC(=O)C(Cc2c[nH]c3ccccc23)NC(=O)OC(C)(C)C)C(=O)NC(CC(=O)O)C(=O)NC(Cc2ccccc2)C(N)=O)cc1 (stereo partly drawn) [3-{(S)-2-[2-tert-Butoxycarbonylamino-3-(1H-indol-3-yl)-propionylamino]-6-[3-(4-methoxy-phenyl)-ureido]-hexanoylamino}-N-(1-carbamoyl-2-phenyl-ethyl)-succinamic acid] (Boc-[ξW]K([CO-NH(4-MeO-phenyl)])[ξD][ξF]-NH2) | 750 nM | 
